Assay results published in article PMC7002685, “Inhibition of vascular calcification by inositol phosphates derivatized with ethylene glycol oligomers” (Nature Communications, 2020).
Where “and” joins values, the source holds several entries; their conditions need not be identical. Identical values can stand only once.

System: transformation of CPP1 to CPP2 in pooled human serum
Experiment: In vitro serum calcification propensity (T50) screening assay
Assay type: biochemical
Set-up: key to T50: T50 in minutes (time to 50% CPP phase transition)
Conditions: for T50: one value per experiment; for activity/unit mass: mean c350 x mw (Na salt); for concentration upon which a T50 of 350 min is reached (c350), mean: mean of n experiments; for concentration upon which a T50 of 350 min is reached (c350), single experiment: one value per experiment (lab journal reference E05-E40); for Concentration at T50 = 350 min mean ± s.d. (n) (c350): pooled human serum, 10 mM calcium, 6 mM phosphate, 37 °C
Method: The compounds were ranked for calcification inhibition activity using a nanoparticle-based test, developed for risk stratification, which measures the propensity for calcification in patient serum. […] The time, after which 50% of CPP phase transition occurred (T50), was assessed by time-resolved spectrophotometry at 550 nm (Supplementary Fig. 1a).
The screening assay was performed as described previously. In brief, pooled human serum (H4522, Sigma-Aldrich) stored at −20 °C was thawed at 37 °C, centrifuged (10,000 × g, and 4 °C, 30 min) (5427R, Eppendorf, Switzerland), and sterile filtered (0.22 μm filter, Millipore, Merck KGaA) to remove potential cryoprecipitates (cleared human serum). The calcium solution was 40 mM CaCl2 (102382, Merck KGaA) in HBS, pH 7.4 (RT) (100 mM HEPES (H3375, Sigma-Aldrich) and 140 mM NaCl (1734712, Fisher Scientific, Hampton, NH, USA)). […] All salt solutions and buffers were double sterile filtered (0.22 µm) and pre-warmed to 37 °C prior to use. […] The plate was sealed with an adhesive film and the absorption at 550 nm was measured every 3 min with 1 min in-between shaking for a total of 300 cycles at 37 °C using the infinite M200 microplate reader (Tecan, Männedorf, Switzerland). An A550 vs. time graph was generated and T50 (min) (time at half-maximum transition from CPP1 to CPP2) values were derived by sigmoidal curve fit using Prism 8 (nonlinear regression in the log(agonist) vs. response–variable slope (four parameter mode) using the robust fit fitting method, GraphPad Software, San Diego, CA, USA). Activities between compounds were compared by generating a T50 (min) vs. concentration (µM) graph, calculating nonlinear regression and deriving the concentration required to delay T50 to 350 min (c350) using a standard equation for the dose–response curve, Eq. (1), whereby x = [compound], y = time (min), bottom = baseline response, top = maximum response, T50 = [drug] that leads to half-maximum response, and the hill slope is a factor that describes the steepness of the curve.1 y= bottom+top - bottom/1+T50/x^hillslope.

| Compound | T50 (concentration 0.3 μM) | T50 (concentration 1 μM) | T50 (concentration 3 μM) | T50 (concentration 10 μM) | T50 (concentration 30 μM) | T50 (concentration 50 μM) | activity/unit mass | concentration upon which a T50 of 350 min is reached (c350), mean | concentration upon which a T50 of 350 min is reached (c350), single experiment | Concentration at T50 = 350 min mean ± s.d. (n) (c350) | T50 (concentration 15 μM) | T50 (concentration 0.246 μM) | T50 (concentration 0.82 μM) | T50 (concentration 1.6 μM) | T50 (concentration 2.46 μM) | T50 (concentration 4.1 μM) | T50 (concentration 8.2 μM) | T50 (concentration 100 μM) | T50 (concentration 5 μM) |
| --- | --- | --- | --- | --- | --- | --- | --- | --- | --- | --- | --- | --- | --- | --- | --- | --- | --- | --- | --- |
| COCCOCCOCCOCCOCCOCCOCCOCCOCCOCCOCCO[C@@H]1[C@@H](OS(=O)(=O)O)[C@H](OP(=O)(O)O)[C@@H](OS(=O)(=O)O)[C@@H](OP(=O)(O)O)[C@H]1OS(=O)(=O)O (racemic) [OEG11-IP2S3, (±)-4-O-(methoxy-undecaethyleneglycol)-1,3,5-O-tris(sulfato)-myo-inositol-2,6-O-bis(phosphate)] | 256.3 | 217.567 and 236.467 and 212.467 | 261.167 and 253.1 and 226.6 | 303.9 and 300.967 and 303.767 and 294.6 | 430.533 and 413.2 and 437.833 and 410.233 | 586.8 and 587.733 and 528.367 | 22.87 mg/L | 18.6 µM | 16.2 µM and 19.4 µM and 17.1 µM and 19.2 µM and 20.9 µM | 18.6 ± 1.9 (5) µM and 22.9 ± 2.3 (5) mg/L |  |  |  |  |  |  |  |  |  |
| O=P(O)(O)OP(=O)(O)O [PPi, sodium pyrophosphate] |  | 217.433 | 221.633 and 215.733 and 209.467 | 255.8 and 265.133 and 242.367 | 364.3 and 363.867 and 345.167 | 483 and 451.167 |  | 27.4 µM | 26.6 µM and 25 µM and 30.5 µM | 27.4 ± 2.8 (3) µM and 7.3 ± 0.8 (3) mg/L | 287.067 and 306.267 and 274.667 |  |  |  |  |  |  |  |  |
| COCCOCCOCCOCCOCCOCCOCCOCCOCCOCCOCCOCCO[C@@H]1[C@@H](OP(=O)(O)O)[C@H](OP(=O)(O)O)[C@@H](OP(=O)(O)O)[C@@H](OP(=O)(O)O)[C@H]1OP(=O)(O)O (racemic) [OEG12-IP5, (±)-6-O-(methoxy-dodecaethyleneglycol)-myo-inositol-1,2,3,4,5-pentakis(phosphate)] |  |  |  |  |  |  | 6.58 mg/L | 4.9 µM | 6.0 µM and 4.6 µM and 4.9 µM and 4.4 µM | 4.9 ± 0.6 (5) µM and 6.6 ± 0.9 (5) mg/L |  | 217.233 and 225.267 | 258.4 and 206.7 and 222.1 and 217.5 and 256.667 | 275.15 and 220.7 | 260.5 and 282.167 | 332.45 and 282.35 and 325.75 and 315.4 and 340 | 493.7 and 442.3 and 481.45 and 498.1 and 499.967 |  |  |
| COCCOCCOCCOCCOCCOCCOCCOCCOCCOCCOCCO[C@@H]1[C@@H](OP(=O)(O)O)[C@H](OP(=O)(O)O)[C@@H](OP(=O)(O)O)[C@@H](OP(=O)(O)O)[C@H]1OP(=O)(O)O (racemic) [OEG11-IP5, (±)-6-O-(methoxy-undecaethyleneglycol)-myo-inositol-1,2,3,4,5-pentakis(phosphate)] | 222.7 and 220.167 and 220.4 | 258.35 and 236.633 and 236.5 | 294.167 and 279.867 and 265.867 | 559.8 and 530.3 and 501.9 |  |  | 6.84 mg/L | 5.3 µM | 4.6 µM and 5.2 µM and 6.0 µM | 5.3 ± 0.7 (3) µM and 6.8 ± 0.9 (3) mg/L |  |  |  |  |  |  |  |  |  |
| magnesium citrate |  | 196.233 and 242.1 and 288.4 | 190.533 and 253.267 and 289.2 | 197.533 and 253.867 and 304.8 | 198.933 and 273.433 and 307.3 |  |  |  |  | >100 (3) µM and >21.4 (3) mg/L |  |  |  |  |  |  |  | 228.767 and 304.4 and 351.8 |  |
| O=P(O)(O)O[C@@H]1[C@H](O)[C@H](O)[C@@H](OP(=O)(O)O)[C@H](OP(=O)(O)O)[C@H]1O [IP3, myo-Inositol-1,4,5-triphosphate] |  | 226 and 227.733 and 222.3 | 236 and 220.433 and 234.133 | 306.433 and 280.567 and 269.467 | 515.9 and 500.567 and 450.3 | 814.5 and 889.4 and 828.767 |  | 18.6 µM | 15.5 µM and 18.6 µM and 21.6 µM | 18.6 ± 3.1 (3) µM and 10.2 ± 1.7 (3) mg/L |  |  |  |  |  |  |  |  |  |
| O=C([O-])CC(O)(CC(=O)[O-])C(=O)[O-].O=C([O-])CC(O)(CC(=O)[O-])C(=O)[O-].[Mg+2].[Mg+2].[Mg+2] [Mg citrat] |  |  |  |  |  |  | 21.44 mg/L | > 100 µM |  |  |  |  |  |  |  |  |  |  |  |
| COCCOCCOCCOCCOCCOCCOCCO[C@@H]1[C@@H](OP(=O)(O)O)[C@H](OP(=O)(O)O)[C@@H](OP(=O)(O)O)[C@@H](OP(=O)(O)O)[C@H]1OP(=O)(O)O (racemic) [OEG7-IP5, (±)-6-O-(methoxy-heptaethyleneglycol)-myo-inositol-1,2,3,4,5-pentakis(phosphate)] | 220.667 and 225.7 and 210.2 | 229.7 and 230.533 and 222.7 | 271.4 and 260.7 and 241.467 | 480.067 and 432.633 and 427.367 |  |  | 7.56 mg/L | 6.7 µM | 5.8 µM and 6.8 µM and 7.6 µM | 6.7 ± 0.9 (3) µM and 7.6 ± 1.0 (3) mg/L |  |  |  |  |  |  |  |  |  |
| O=P1(O)OP(=O)(O)O[C@H]2[C@@H](O1)[C@@H]1OP(=O)(O)OP(=O)(O)O[C@H]1[C@@H]1OP(=O)(O)OP(=O)(O)O[C@@H]21 (racemic) [ITPP, myo-inositol trispyrophosphate] |  | 193.4 and 250.1 and 242.3 and 298 | 191.467 and 273.733 and 236.7 and 299.7 | 194.6 and 250.333 and 260.467 and 308.2 | 200.233 and 253.8 and 260.967 | 203.167 | 60.60 mg/L | > 100 µM |  | >100 (4) µM and >60.6 (4) mg/L |  |  |  |  |  |  |  | 274.033 and 292.433 |  |
| COCCOCCOCCOCCOCCOCCOCCO[C@H]1[C@H](OP(=O)(O)O)[C@H](OCCOCCOCCOCCOCCOCCOCCOC)[C@H](OP(=O)(O)O)[C@@H](OCCOCCOCCOCCOCCOCCOCCOC)[C@@H]1OP(=O)(O)O [(OEG7)3-IP3, 2,4,6-Tri-O-(methoxy-heptaethyleneglycol)-myo-inositol-1,3,5-tris(phosphate)] |  | 258.7 and 237.667 and 205.767 | 289.967 and 270.1 and 251.367 | 364.467 and 352.533 and 355.7 |  |  | 14.33 mg/L | 9.4 µM | 8.7 µM and 9.8 µM | 9.4 ± 0.6 (3) µM and 14.3 ± 1.0 (3) mg/L |  |  |  |  |  |  |  |  | 303.667 and 291.2 and 260.633 |
| O=P(O)(O)O[C@@H]1[C@@H](O)[C@@H](OP(=O)(O)O)[C@@H](O)[C@H](O)[C@H]1O [IP2, myo-Inositol-2,4-diphosphate] |  | 228.333 and 230.233 and 205.967 | 236.4 and 226.467 and 221.933 | 274.433 and 257.367 and 241.267 | 358.8 and 323.1 and 304.6 | 407.867 and 425.367 and 375.7 |  | 35.0 µM | 27.3 µM and 35.1 µM and 42.7 µM | 35.0 ± 7.7 (3) µM and 15.0 ± 3.3 (3) mg/L |  |  |  |  |  |  |  |  |  |
